Results: PubChem BioAssay AID248 (DTP/NCI, 2004)
Toxic doses and inconclusive results are not listed. Cut-off read from the data, not from the text of the source: active = T/C of 150% or more; inactive = T/C below 125%.

Tested on: L1210 leukemia ip in BDF1 mice, survival T/C
Test: NCI In Vivo Anticancer Drug Screen. Data for tumor model L1210 Leukemia (intraperitoneal) in B6D2F1 (BDF1) mice
Conditions: endpoint: mean survival time, higher = longer survival
In short: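 In this screen, tumor-bearing mice given compound are compared to those given vehicle, and their survival values are reported as a treated-to-control quotient.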

Measured: T/C

Cc1ccc(S(=O)(=O)N(C)c2cc(Cl)c(C(N)=O)c(Cl)c2)cc1
inactive: dose: 100.0 mg/kg/injection, schedule: Q01DX001 (ip), vehicle: Klucel (hydroxypropylcellulose) (HPC) 93 % of control | dose: 100.0 mg/kg/injection, schedule: Q01DX009 (ip), vehicle: saline sonified 97 % of control | dose: 100.0 mg/kg/injection, schedule: Q01DX009 (ip), vehicle: saline with Tween-80 98 % of control | dose: 100.0 mg/kg/injection, schedule: Q04DX003 (ip), vehicle: saline with Tween-80 105 % of control | dose: 200.0 mg/kg/injection, schedule: Q01DX001 (ip), vehicle: Klucel (hydroxypropylcellulose) (HPC) 95 % of control | dose: 200.0 mg/kg/injection, schedule: Q01DX009 (ip), vehicle: saline sonified 105 % of control | dose: 200.0 mg/kg/injection, schedule: Q01DX009 (ip), vehicle: saline with Tween-80 90 % of control | dose: 200.0 mg/kg/injection, schedule: Q04DX003 (ip), vehicle: saline with Tween-80 101 % of control | dose: 400.0 mg/kg/injection, schedule: Q01DX001 (ip), vehicle: Klucel (hydroxypropylcellulose) (HPC) 100 % of control | dose: 400.0 mg/kg/injection, schedule: Q01DX009 (ip), vehicle: saline sonified 93 % of control | dose: 400.0 mg/kg/injection, schedule: Q01DX009 (ip), vehicle: saline with Tween-80 92 % of control | dose: 400.0 mg/kg/injection, schedule: Q04DX003 (ip), vehicle: saline with Tween-80 92 % of control

O=C1C=C(Nc2ccc(Cl)cc2)c2ccccc2C1=O
inactive: dose: 100.0 mg/kg/injection, schedule: Q01DX001 (ip), vehicle: other 98 % of control | dose: 200.0 mg/kg/injection, schedule: Q01DX001 (ip), vehicle: other 90 % of control | dose: 400.0 mg/kg/injection, schedule: Q01DX001 (ip), vehicle: other 95 % of control

CCCCN(CCCC)CC(O)c1cc(-c2ccc(Cl)c(Cl)c2)nc2c(Cl)cc(Cl)cc12 (centres undefined)
inactive: dose: 100.0 mg/kg/injection, schedule: Q01DX001 (ip), vehicle: saline 103 % of control | dose: 200.0 mg/kg/injection, schedule: Q01DX001 (ip), vehicle: saline 94 % of control | dose: 400.0 mg/kg/injection, schedule: Q01DX001 (ip), vehicle: saline 94 % of control

C1=CC2CC1CC2[P+](c1ccccc1)(c1ccccc1)c1ccccc1 (centres undefined)
inactive: dose: 12.5 mg/kg/injection, schedule: Q01DX001 (ip), vehicle: saline 117 % of control | dose: 25.0 mg/kg/injection, schedule: Q01DX001 (ip), vehicle: saline 98 % of control | dose: 50.0 mg/kg/injection, schedule: Q01DX001 (ip), vehicle: saline 95 % of control

COC1OC(COC(c2ccccc2)(c2ccccc2)c2ccccc2)C(OC(=S)SCc2ccccc2)C(OC)C1OC (centres undefined)
inactive: dose: 25.0 mg/kg/injection, schedule: Q04DX002 (ip), vehicle: Klucel (hydroxypropylcellulose) (HPC) 108 % of control | dose: 50.0 mg/kg/injection, schedule: Q04DX002 (ip), vehicle: Klucel (hydroxypropylcellulose) (HPC) 104 % of control | dose: 100.0 mg/kg/injection, schedule: Q04DX002 (ip), vehicle: Klucel (hydroxypropylcellulose) (HPC) 104 % of control

O=C[N]([Hg][Cl])c1ccccc1
inactive: dose: 0.39 mg/kg/injection, schedule: Q01DX009 (ip), vehicle: saline with Tween-80 102 % of control | dose: 0.78 mg/kg/injection, schedule: Q01DX009 (ip), vehicle: saline with Tween-80 102 % of control | dose: 1.56 mg/kg/injection, schedule: Q01DX009 (ip), vehicle: saline with Tween-80 87 % of control | dose: 1.56 mg/kg/injection, schedule: Q01DX009 (ip), vehicle: saline 94 % of control

CN1CCC(SC(=O)C(O)(c2ccccc2)c2ccccc2)CC1
inactive: dose: 75.0 mg/kg/injection, schedule: Q01DX001 (ip), vehicle: saline 94 % of control | dose: 150.0 mg/kg/injection, schedule: Q01DX001 (ip), vehicle: saline 95 % of control

NC(CSCc1ccccc1)CSCc1ccccc1
inactive: dose: 25.0 mg/kg/injection, schedule: Q01DX009 (ip), vehicle: saline 101 % of control | dose: 50.0 mg/kg/injection, schedule: Q01DX009 (ip), vehicle: saline 100 % of control | dose: 100.0 mg/kg/injection, schedule: Q01DX009 (ip), vehicle: saline 105 % of control

C[N+](C)(C)CSSC[N+](C)(C)C
inactive: dose: 12.5 mg/kg/injection, schedule: Q04DX003 (ip), vehicle: saline 92 % of control | dose: 25.0 mg/kg/injection, schedule: Q04DX003 (ip), vehicle: saline 87 % of control | dose: 50.0 mg/kg/injection, schedule: Q04DX003 (ip), vehicle: saline 93 % of control

COc1cc(CC2c3cccc(Oc4ccc(C)cc4)c3CCN2C)ccc1Oc1ccc(C)cc1 (centres undefined)
inactive: dose: 100.0 mg/kg/injection, schedule: Q04DX002 (ip), vehicle: other 96 % of control | dose: 200.0 mg/kg/injection, schedule: Q04DX002 (ip), vehicle: other 100 % of control | dose: 400.0 mg/kg/injection, schedule: Q04DX002 (ip), vehicle: other 100 % of control
